Results as given in publication PMC9854712 (Antioxidants, 2023).

Experiments:
MDA-MB-231 cells = assay: MTT cell viability assay, MDA-MB-231; type: cell-based; conditions: Homo sapiens, MDA-MB-231, 48 h, read-out: Cell growth % at 10 µM, MDA-MB-231
Experimental: (§1) The cell lines were obtained from the American Type Culture Collection (ATCC). Five tumor cell lines (MDA-MB-231, MCF-7, HCT116, HTB-54, and DU-145) and two non-tumorigenic cells (184B5 and BEAS-2B) were grown in RPMI 1640 medium (Gibco), and the HT-29 tumor cell line was grown in McCoy’s medium. Both mediums were supplemented with 10% fetal bovine serum (FBS; Gibco) and 1% antibiotics (10.00 units/mL penicillin and 10.00 μg/mL streptomycin; Gibco). Cells were preserved in tissue culture flasks at 37 °C and 5% CO2. The culture medium was replaced every three days.
(§2) The effect of each compound on cell viability was tested using the MTT assay. […] Selected compounds were then tested at seven different concentrations (0.5–100 μM) in MCF-7, HCT116, HT-29, HTB-54, 184B5 and BEAS-2B cells. Cells were seeded at 10^4 per well onto flat-bottomed 96-well culture plates. They were treated with either DMSO or increasing concentration of the corresponding compound for 48 h. Then, they were incubated with 20 μL of 3-(4,5-dimethylthiazol-2-yl)-2,5-diphenyltetrazolium bromide (MTT) (2 mg /mL stock; Aldrich) for 2,5 h and analyzed for their ability to generate a purple formazan dye. These formazan crystals were dissolved in 50 μL of DMSO. The absorbance was measured at a wavelength of 550 nm and the ratio of viable cells was calculated.
(§3) Results are expressed as cell viability % at 10 μM. Selectivity index were calculated as the ratio of the IC50 values determined for the non-malignant and the tumor cells in breast (IC50 (184B5)/IC50 (MCF-7)) and lung (IC50 (BEAS-2B)/IC50 (HTB-54)) cell lines. Data were obtained from at least three independent experiments performed in triplicates.

AChE = target: T1, AChE (Rattus norvegicus, UniProt P37136); assay: AChE inhibition by Ellman's method (rat frontal cortex homogenate); type: biochemical; conditions: at 10^−6 M, Ellman's method
T1 construct: from tissue; host or cells: frontal cortex of male Wistar rats (crude homogenate)
T1 sequence (P37136 32-614): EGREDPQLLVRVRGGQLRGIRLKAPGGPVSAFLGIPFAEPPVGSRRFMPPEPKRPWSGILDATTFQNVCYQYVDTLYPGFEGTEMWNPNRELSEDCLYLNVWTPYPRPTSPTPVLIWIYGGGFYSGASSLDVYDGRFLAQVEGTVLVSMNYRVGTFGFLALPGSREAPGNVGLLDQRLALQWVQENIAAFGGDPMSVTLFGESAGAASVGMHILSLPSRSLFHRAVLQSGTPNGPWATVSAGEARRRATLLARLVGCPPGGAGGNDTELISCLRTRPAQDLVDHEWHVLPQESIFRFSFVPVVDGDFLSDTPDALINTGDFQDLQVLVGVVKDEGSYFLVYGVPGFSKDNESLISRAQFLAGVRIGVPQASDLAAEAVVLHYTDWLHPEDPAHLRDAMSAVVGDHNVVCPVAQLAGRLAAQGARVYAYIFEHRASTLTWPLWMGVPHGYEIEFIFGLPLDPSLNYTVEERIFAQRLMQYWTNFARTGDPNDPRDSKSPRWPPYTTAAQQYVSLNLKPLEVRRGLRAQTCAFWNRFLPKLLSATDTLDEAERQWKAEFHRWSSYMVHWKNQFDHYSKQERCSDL
Experimental: Frontal cortex tissue obtained from male Wistar rats was homogenized in 39 volumes of 75 mM sodium phosphate buffer (pH 7.4). A mixture of 260 μL containing the compounds assessed, acetylthiocholine iodide and 5 μL tissue homogenate was incubated for 8 min. The reaction was then terminated by adding 50 μL 3% (w/v) sodium dodecyl sulphate followed by 50 μL 0.2% (w/v) 5,5′-dithio-bis(2-nitrobenzoic) acid to produce the yellow anion of 5-thio-2-nitro-benzoic-acid. The extent of the color production was measured spectrophotometrically at 405 nm using Multiskan Ex (Thermo Electron Corporation). […] Results are expressed as the mean ± SD and each experiment was repeated three times.

DU-145 cells = assay: MTT cell viability assay, DU-145; type: cell-based; conditions: Homo sapiens, DU-145, 48 h, read-out: Cell growth % at 10 µM, DU-145
Experimental: as §1, §2, §3

HT-29 cells = assay: MTT cell viability assay, HT-29; type: cell-based; conditions: Homo sapiens, HT-29, 10 µM, 48 h, read-out: Cell growth % at 10 µM, HT-29
Experimental: as §1, §2, §3

HTB-54 cells = assay: MTT cell viability assay, HTB-54; type: cell-based; conditions: HTB-54; 10 µM, 48 h, MTT; read-out: Cell growth % at 10 µM, HTB-54
Experimental: as §1, §2, §3

Structure (SMILES) | viability at 10 µM (MDA-MB-231 cells) | inhibition at 1 µM (AChE) | viability at 10 µM (DU-145 cells) | viability at 10 µM (HT-29 cells) | viability at 10 µM (HTB-54 cells)
C=CC[Se]C(=O)c1ccccc1 [Compound 2a, Se-allyl benzoselenoate] | 37.9 ± 3.6% | 22.6 ± 1.6% | 65.6 ± 5.6% | 85.3 ± 19.4% | 43.2 ± 9%
C#CC[Se]C(=O)/C=C/c1ccccc1 [Compound 5b, Se-prop-2-ynyl 3-phenylprop-2E-eneselenoate] | 64.8 ± 14.7% | 26 ± 3.7% | 70.5 ± 11.5% | 80.8 ± 8.5% | 79.8 ± 7.7%
C=CC[Se]C(=O)c1ccccc1Cl [Compound 3a, Se-allyl 2-chlorobenzoselenoate] | 29.7 ± 6.4% | 21.5 ± 7.5% | 39.8 ± 6.3% | 63.2 ± 16.9% | 37.5 ± 7.3%
C#CC[Se]C(=O)C12CC3CC(CC(C3)C1)C2 [Compound 1b, Se-prop-2-ynyl adamantane-1-carboselenoate] | 71.3 ± 8% | 18 ± 7.9% | 62.7 ± 7.7% | 87.9 ± 12.1% | 86 ± 11.6%
C#CC[Se]C(=O)c1cccnc1 [Compound 7b, Se-prop-2-ynyl pyridine-3-carboselenoate] | 91.3 ± 8.3% | 24.9 ± 2.2% | 54.6 ± 4.5% | > 100% | 91.4 ± 6.6%
C#CC[Se]C(=O)c1ccco1 [Compound 11b, Se-prop-2-ynyl furan-2-carboselenoate] | 99 ± 11.2% | 27.2 ± 4.1% | 70 ± 4.5% | > 100% | 75.4 ± 15.5%
C=CC[Se]C(=O)c1ccco1 [Compound 11a, Se-allyl 4-furan-2-carboselenoate] | 34.1 ± 10.6% | 18.6 ± 2.8% | 35.3 ± 5.8% | 79.8 ± 16.3% | 30.7 ± 6.2%
C=CC[Se]C(=O)c1cccnc1 [Compound 7a, Se-allyl pyridine-3-carboselenoate] | 35.3 ± 6.4% | 13.6 ± 5.5% | 51.7 ± 9.8% | 64.3 ± 14.1% | 22 ± 5.1%
C=CC[Se]C(=O)C12CC3CC(CC(C3)C1)C2 [Compound 1a, Se-allyl adamantane-1-carboselenoate] | 92.6 ± 12.7% | 19.3 ± 4.1% | > 100% | 91 ± 3.6% | 72.1 ± 8.1%
C#CC[Se]C(=O)CCc1ccccc1 [Compound 6b, Se-prop-2-ynyl 3-phenylpropaneselenoate] | 78.9 ± 8.4% | 24.5 ± 6.7% | 76.6 ± 12% |  | 83.4 ± 7.7%
C#CC[Se]C(=O)C(C)c1ccc(CC(C)C)cc1 (stereo not shown) [Compound 15b, Se-prop-2-ynyl 2-(4-isobutylphenyl)propaneselenoate] | 59.7 ± 15.7% | 8.5 ± 11.1% | 34.7 ± 6.3% | 59.3 ± 4% | 95.6 ± 5.7%
C#CC[Se]C(=O)c1ccccc1OC(C)=O [Compound 14b, 2-(prop-2-ynylselanyl)carbonylphenylacetate] | 52.3 ± 7.1% | 21.1 ± 5.2% | 25.5 ± 6.2% | 65.6 ± 7.3% | 78.9 ± 9%
C#CC[Se]C(=O)c1ccccc1 [Compound 2b, Se-prop-2-ynyl benzoselenoate] | 79.3 ± 18.7% | 26.9 ± 7.3% | 72.9 ± 13.6% | 78.3 ± 6.9% | 78.3 ± 11.4%
C=CC[Se]C(=O)c1cccnc1Cl [Compound 8a, Se-allyl 2-chloropyridine-3-carboselenoate] | 37.1 ± 4.7% | 6.3 ± 4.1% | 49.5 ± 6.6% | 62.2 ± 16.1% | 25.8 ± 5.2%
C=CC[Se]C(=O)c1ccccc1Nc1cccc(C(F)(F)F)c1 [Compound 19a, Se-allyl 2-(3-trifluoromethylphenyl)aminobenzoselenoate] | 81.6 ± 9.7% | 19.3 ± 2% | 17 ± 2.9% | 46 ± 8.7% | 16.3 ± 7.6%
C=CC[Se]C(=O)c1ccno1 [Compound 12a, Se-allyl isoxazole-5-carboselenoate] | 96.8 ± 15.8% | 4.2 ± 6.7% | 62.7 ± 4.7% | 70.7 ± 10.7% | 95.5 ± 5.9%
C#CC[Se]C(=O)c1ccno1 [Compound 12b, Se-prop-2-ynyl isoxazole-5-carboselenoate] | 92.5 ± 15.1% | 21.7 ± 7.9% | 95.1 ± 12.3% | 81.3 ± 11.1% | 97.6 ± 7.1%
C#CC[Se]C(=O)c1ccccc1O [Compound 13b, Se-prop-2-ynyl 2-hydroxybenzoselenoate] | 52.3 ± 7.9% | 21.5 ± 9.5% | 26.8 ± 5.5% | 70.2 ± 13.2% | 82.1 ± 7.6%
C=CC[Se]C(=O)c1ccccc1Nc1cccc(C)c1C [Compound 18a, Se-allyl 2-(2,3-dimethylphenyl)aminebenzoselenoate] | 85.9 ± 9.5% | 18.4 ± 3.6% | 74.7 ± 13.7% | 71.5 ± 11.7% | 40.9 ± 18.5%
C#CC[Se]C(=O)[C@@H](C)c1ccc2cc(OC)ccc2c1 [Compound 16b, Se-prop-2-ynyl (S)-2-(6-methoxynaphthalen-2-yl)propaneselenoate] | 29.8 ± 9.6% | 16.2 ± 2.3% | 66.4 ± 4.4% | 65.7 ± 10% | > 100%
C=CC[Se]C(=O)c1ccc2c(c1)OCO2 [Compound 4a, Se-allyl benzodioxole-5-carboselenoate] | 97.3 ± 10.4% | 2.5 ± 9.3% | > 100% | 33.6 ± 12.6% | 67.6 ± 15.1%
C=CC[Se]C(=O)CCc1ccccc1 [Compound 6a, Se-allyl 3-phenylpropaneselenoate] | 35.9 ± 2.6% | 18.7 ± 12.4% | 26.9 ± 4.4% | 63.7 ± 12.3% | 36.3 ± 7%
C#CC[Se]C(=O)c1ccccc1Nc1cccc(C)c1C [Compound 18b, Se-prop-2-ynyl 2-(2,3-dimethylphenyl)aminobenzoselenoate] | 99 ± 11.2% | 20 ± 2.4% | 32.6 ± 4.6% | 66.5 ± 9.5% | 62.3 ± 8.3%
C=CC[Se]C(=O)/C=C/c1ccccc1 [Compound 5a, Se-allyl 3-phenylprop-2E-eneselenoate] | 91.1 ± 16.8% | 8.7 ± 4.9% | 83.3 ± 7.8% | 87.6 ± 7.9% | 46.1 ± 5.6%
C#CC[Se]C(=O)Cc1c(C)n(C(=O)c2ccc(Cl)cc2)c2ccc(OC)cc12 [Compound 17b, Se-prop-2-ynyl 2-(1-(4-chlorobenzoyl)-5-methoxy-2-methyl-1H-indol-3-yl)ethaneselenoate] | 59.1 ± 11.5% | 23 ± 6.7% | 19.2 ± 4% | 66.3 ± 10.2% | 85.9 ± 5.1%
